{"source": "paper PMC9013686", "about": "“Inter-individual variation in chlorpyrifos toxicokinetics characterized by physiologically based kinetic (PBK) and Monte Carlo simulation comparing human liver microsome and Supersome™ cytochromes P450 (CYP)-specific kinetic data as model input” (Archives of Toxicology, 2022)", "key": {"[1]": {"system": "RBC AChE", "conditions": "ref USEPA (2014); cited from earlier work"}, "[2]": {"biological_target": "T1, CYP1A2 (Homo sapiens, UniProt P05177)", "T1 sequence (P05177 2-516 limits assumed)": "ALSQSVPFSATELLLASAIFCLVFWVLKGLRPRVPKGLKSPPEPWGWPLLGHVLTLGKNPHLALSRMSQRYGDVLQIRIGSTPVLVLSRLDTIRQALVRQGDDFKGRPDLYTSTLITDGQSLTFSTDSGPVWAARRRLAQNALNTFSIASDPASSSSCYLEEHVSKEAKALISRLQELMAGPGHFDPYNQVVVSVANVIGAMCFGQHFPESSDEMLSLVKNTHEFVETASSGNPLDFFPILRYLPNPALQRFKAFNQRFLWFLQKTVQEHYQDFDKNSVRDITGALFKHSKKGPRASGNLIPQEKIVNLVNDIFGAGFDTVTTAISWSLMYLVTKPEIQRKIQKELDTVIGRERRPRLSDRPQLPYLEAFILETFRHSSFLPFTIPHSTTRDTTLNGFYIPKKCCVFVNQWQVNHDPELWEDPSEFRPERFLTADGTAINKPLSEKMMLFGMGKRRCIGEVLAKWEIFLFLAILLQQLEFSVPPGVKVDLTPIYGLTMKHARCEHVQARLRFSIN", "assay": "Supersome CYP1A2 kinetic incubations", "format": "in vitro ADME", "design": "purchased Corning (Amsterdam, The Netherlands); host or cells: baculovirus-transfected insect cells", "conditions": "for Scaled Vmax(app): CYP1A2 scaled to whole liver by Eq. 3; for Vmax (app) / Km: Supersome CYP1A2; for Km: human, recombinant CYP1A2 Supersomes, pH 7.4, Km(app)", "method": "(§1) The final incubations were carried out in 50 mM Tris–HCl (pH 7.4) containing 5 mM MgCl2, 1 mM EDTA (as an A-esterase PON1 inhibitor) (Bizoń and Milnerowicz [2018]), 50 µM iso-OMPA (as a B-esterases inhibitor) (Lane et al. [2006]), Supersome™ isoform (at final concentration of 0.005 nmol CYP/ml for 1A2, 0.001 nmol CYP/ml for 2B6, 0.01 nmol CYP/ml for 2C19, and 0.01 nmol CYP/ml for 3A4) and CPF at different final concentrations (0.05, 0.1, 0.25, 0.5, 1, 5 and 10 µM for 1A2, 0.05, 0.1, 0.25, 0.5, 1, 5 10 and 25 µM for 2B6, 1, 2.5, 5, 10, 25 and 50 µM for 2C19, and 0.5, 1, 2.5, 5, 10, 25 and 50 µM for 3A4), which were added from 100 times concentrated stock solutions in ACN. After 1 min preincubation in a 37 °C water bath, 5 µl NADPH (final concentration 1 mM) was added to the incubation system. Control incubations were performed by replacing NADPH with the same amount of Tris–HCl (pH 7.4). The total volume of the incubation mixtures was 200 µl. The incubations lasted for 2 min at 37 °C and were terminated by addition of 50 µl ice cold ACN and subsquently put on ice. After that, samples were centrifuged at 16,000 g (4 ℃) for 5 min and supernatants of samples were separated into two equal portions for Ultra-Performance Liquid Chromatography-Photodiode Array (UPLC-PDA) and Liquid Chromatography Mass Spectrometry (LC–MS/MS) analysis, respectively.\n(§2) To normalize for differences in intrinsic CYP activity between Supersome™ and pooled HLMs and enable scaling of the activities to the in vivo situation, CYP-specific ISEF values need to be established. […] The incubation method was similar as used for the CPF kinetic incubation assay described above, except that certain incubation conditions were replaced by the conditions listed in Table 1. The samples obtained were analyzed by UPLC-PDA for acetaminophen, 4-hydroxymephenytoin, and 6β-hydroxytestosterone formation catalyzed by 1A2, 2C19 and 3A4, or LC–MS/MS for (±)-hydroxybupropion formation catalyzed by 2B6.\n(§3) As mentioned before, the in vitro apparent kinetic parameters (Vmax and Km) for pathway 1 and pathway 2 in the HLM-based approach, and pathway 3 in both approaches were all obtained directly from reported studies using pooled HLMs (Buratti et al. [2003]; Sams et al. [2004]; Zhao et al. [2019]). Therefore, no extra calculations were required to define these parameters. The kinetic parameters for the ISEF calculation, pathway 1 and 2 in the Supersome™-based approach, and pathway 4 in both approaches (25 individuals) were all obtained by fitting the experimental data to the Michaelis–Menten model using GraphPad (GraphPad Prism 5.0 software, San Diego, CA, USA). It should be noted that the kinetic parameters for pathway 4 used in the two approaches were calculated as mean of the kinetic parameters (Vmax and Km) obtained using 25 individual HP samples (with correction for total protein concentration of each plasma sample).\n(§4) The in vivo Kmi values were assumed to be equal to the apparent Kmi(app) values (µM) obtained in the in vitro incubations, while the in vivo Vmaxi for each CYP isoform was derived from their corresponding apparent CYP isoform Vmaxi(app) (pmol/min/pmolCYP) using Eq. 3:3 Vmaxi=Vmaxiapp×CYPiabundance×ISEF×60×MPL×1000×VL/1,000,000,"}, "[3]": {"biological_target": "CYP2C19 (Homo sapiens, UniProt P33261)", "sequence (P33261 whole entry)": "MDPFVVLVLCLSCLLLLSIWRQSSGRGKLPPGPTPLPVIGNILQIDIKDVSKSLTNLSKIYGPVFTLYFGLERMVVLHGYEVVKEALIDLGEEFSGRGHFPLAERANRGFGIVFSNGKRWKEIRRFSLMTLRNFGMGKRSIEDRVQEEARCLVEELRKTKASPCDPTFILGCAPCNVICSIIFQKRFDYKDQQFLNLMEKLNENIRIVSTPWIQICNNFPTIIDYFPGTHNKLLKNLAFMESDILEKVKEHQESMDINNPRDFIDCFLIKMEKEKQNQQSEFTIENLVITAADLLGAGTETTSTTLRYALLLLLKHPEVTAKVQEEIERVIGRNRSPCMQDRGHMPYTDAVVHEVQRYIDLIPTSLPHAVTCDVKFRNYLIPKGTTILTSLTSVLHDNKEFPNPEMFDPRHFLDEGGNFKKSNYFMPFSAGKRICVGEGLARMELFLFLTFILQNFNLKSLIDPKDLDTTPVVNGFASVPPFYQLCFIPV", "assay": "Supersome CYP2C19 kinetic incubations", "format": "in vitro ADME", "design": "purchased Corning (Amsterdam, The Netherlands); host or cells: baculovirus-transfected insect cells", "conditions": "for Scaled Vmax(app): CYP2C19 scaled to whole liver by Eq. 3; for Vmax (app) / Km: Supersome CYP2C19; for Km: human, recombinant CYP2C19 Supersomes, pH 7.4, Km(app)", "method": "as §1, §2, §3, §4"}, "[4]": {"system": "pooled HLMs (CYPs)", "assay": "CYP-mediated biotransformation of CPF in pooled HLMs (literature kinetic data)", "format": "in vitro ADME, human", "conditions": "bioactivation of CPF", "from_the_text": "as §3"}, "[5]": {"biological_target": "CYP3A4 (Homo sapiens, UniProt P08684)", "sequence (P08684 2-503 limits assumed)": "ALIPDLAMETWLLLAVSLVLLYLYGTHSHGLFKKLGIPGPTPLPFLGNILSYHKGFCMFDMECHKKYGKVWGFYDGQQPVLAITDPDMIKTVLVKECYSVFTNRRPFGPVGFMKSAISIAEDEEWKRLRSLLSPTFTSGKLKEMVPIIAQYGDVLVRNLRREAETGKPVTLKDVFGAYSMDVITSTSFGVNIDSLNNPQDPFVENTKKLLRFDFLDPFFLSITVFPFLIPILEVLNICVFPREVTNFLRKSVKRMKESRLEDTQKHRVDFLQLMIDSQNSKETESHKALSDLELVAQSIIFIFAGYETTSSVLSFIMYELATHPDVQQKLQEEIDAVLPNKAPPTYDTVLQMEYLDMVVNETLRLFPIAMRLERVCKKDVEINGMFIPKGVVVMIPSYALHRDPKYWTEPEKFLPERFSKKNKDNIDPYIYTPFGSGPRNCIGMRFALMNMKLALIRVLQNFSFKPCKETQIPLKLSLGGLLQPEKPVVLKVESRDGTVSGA", "assay": "Supersome CYP3A4 kinetic incubations", "format": "in vitro ADME", "design": "purchased Corning (Amsterdam, The Netherlands); host or cells: baculovirus-transfected insect cells", "conditions": "for Scaled Vmax(app): CYP3A4 scaled to whole liver by Eq. 3; for Vmax (app) / Km: Supersome CYP3A4", "method": "as §1, §2, §3, §4"}, "[6]": {"conditions": "cited from earlier work"}, "[7]": {"conditions": "Pathway 1 (bioactivation of CPF to CPO)"}, "[8]": {"conditions": "Pathway 2 (detoxification of CPF to TCPy)"}}, "note": "“And” between values parts separate entries of the source, which are not always exact repeats. Identical values can stand only once. Like-named read-outs stand apart in the source and are kept apart here.", "data": [{"smiles": "CCOP(=S)(OCC)Oc1nc(Cl)c(Cl)cc1Cl", "note": "[CPF, Chlorpyrifos]", "values": [{"measurement": "BMDL10 (EPA, derived from human PBPK-PD model)", "setting": "[1]", "value": 0.47, "unit": "mg/kg bw"}, {"measurement": "Scaled Vmax(app)", "setting": "[2]; Pathway 1 (CPF to CPO)", "value": 51.81, "unit": "µmol/h"}, {"measurement": "Vmax (app)", "setting": "[2]; Pathway 1 (CPF to CPO)", "value": 3.96, "unit": "pmol/min/pmolCYP"}, {"measurement": "Scaled Vmax(app)", "setting": "[2]; Pathway 2 (CPF to TCPy)", "value": 38.73, "unit": "µmol/h"}, {"measurement": "Vmax (app)", "setting": "[2]; Pathway 2 (CPF to TCPy)", "value": 2.96, "unit": "pmol/min/pmolCYP"}, {"measurement": "Km", "setting": "[2]; [7]", "value": 0.61, "unit": "µM"}, {"measurement": "Km", "setting": "[2]; [8]", "value": 1.25, "unit": "µM"}, {"measurement": "Scaled Vmax(app)", "setting": "[3]; Pathway 1 (CPF to CPO)", "value": 10.81, "unit": "µmol/h"}, {"measurement": "Vmax (app)", "setting": "[3]; Pathway 1 (CPF to CPO)", "value": 2.74, "unit": "pmol/min/pmolCYP"}, {"measurement": "Scaled Vmax(app)", "setting": "[3]; Pathway 2 (CPF to TCPy)", "value": 69.06, "unit": "µmol/h"}, {"measurement": "Vmax (app)", "setting": "[3]; Pathway 2 (CPF to TCPy)", "value": 17.51, "unit": "pmol/min/pmolCYP"}, {"measurement": "Km", "setting": "[3]; [7]", "value": 1.89, "unit": "µM"}, {"measurement": "Km", "setting": "[3]; [8]", "value": 1.37, "unit": "µM"}, {"measurement": "CE of pooled HLM, biphasic kinetics", "setting": "[4]; high and low affinity phase included", "value": 3600, "unit": "L/h"}, {"measurement": "CE of pooled HLM, high affinity phase excluded", "setting": "[4]; non-biphasic", "value": 41, "unit": "L/h"}, {"measurement": "Scaled Vmax(app)", "setting": "[5]; Pathway 1 (CPF to CPO)", "value": 910.77, "unit": "µmol/h"}, {"measurement": "Vmax (app)", "setting": "[5]; Pathway 1 (CPF to CPO)", "value": 17.78, "unit": "pmol/min/pmolCYP"}, {"measurement": "Scaled Vmax(app)", "setting": "[5]; Pathway 2 (CPF to TCPy)", "value": 1222.21, "unit": "µmol/h"}, {"measurement": "Vmax (app)", "setting": "[5]; Pathway 2 (CPF to TCPy)", "value": 23.86, "unit": "pmol/min/pmolCYP"}, {"measurement": "Km", "setting": "[5]; human, recombinant CYP3A4 Supersomes, pH 7.4, Km(app), Pathway 1 (bioactivation of CPF to CPO)", "value": 29.8, "unit": "µM"}, {"measurement": "Km", "setting": "[5]; human, recombinant CYP3A4 Supersomes, pH 7.4, Km(app), Pathway 2 (detoxification of CPF to TCPy)", "value": 18.1, "unit": "µM"}, {"measurement": "Km", "setting": "[5]; read-out: Km(app), Pathway 1 (bioactivation of CPF to CPO)", "value": 29.8, "unit": "µM"}, {"measurement": "ka (absorption rate constant)", "setting": "[6]; PBK model input, mean, ref Bouchard et al. ([2005])", "value": 0.46, "unit": "h⁻¹"}, {"measurement": "fa (fractional absorption), mean", "setting": "[6]; mean of the reported fa values, ref Timchalk et al. ([2002]), Nolan et al. ([1984])", "value": "0.462 and 0.46"}, {"measurement": "fa (fractional absorption)", "setting": "[6]; ref Nolan et al. ([1984])", "value": 0.7}, {"measurement": "fa (fractional absorption)", "setting": "[6]; ref Timchalk et al. ([2002])", "value": 0.224}]}]}
